# Measured values: ChEMBL document CHEMBL1131216, “Anhydrolide macrolides. 2. Synthesis and antibacterial activity of 2,3-anhydro-6-O-methyl 11,12-carbazate erythromycin A analogues” (1998)
# Columns and labels:
# Format in all cases: functional
# [1] = system: Haemophilus influenzae; assay: In vitro antibacterial activity of DILL strain of Gram negative bacteria Haemophilus influenzae
# [2] = system: Streptococcus pneumoniae; assay: In vitro antibacterial activity of 5649 strain of Gram positive bacteria Streptococcus pneumoniae
# [3] = system: Streptococcus pneumoniae; assay: In vitro antibacterial activity of 5979 strain of Gram positive bacteria Streptococcus pneumoniae
# [4] = system: Streptococcus pneumoniae; assay: In vitro antibacterial activity of ATCC 6303 strain of Gram positive bacteria Streptococcus pneumoniae
# [5] = system: Staphylococcus aureus; assay: In vivo antibacterial activity of NCTC-10649 strain of Gram positive bacteria Staphylococcus aureus
# [6] = system: Streptococcus pneumoniae; assay: In vivo antibacterial activity of ATCC 6303 strain of Gram positive bacteria Streptococcus pneumoniae (95% confidence interval)
# [7] = system: Staphylococcus aureus; assay: In vitro antibacterial activity of A5177 strain of Gram positive bacteria Staphylococcus aureus
# [8] = system: Staphylococcus aureus; assay: In vivo antibacterial activity of NCTC-10649 strain of Gram positive bacteria Staphylococcus aureus (95% confidence interval)
# [9] = system: Streptococcus pneumoniae; assay: In vivo antibacterial activity of ATCC 6303 strain of Gram positive bacteria Streptococcus pneumoniae
# [10] = system: Streptococcus pyogenes; assay: In vitro antibacterial activity of 930 strain of Gram positive bacteria Streptococcus pyogenes
# [11] = system: Streptococcus pyogenes; assay: In vitro antibacterial activity of EES61 strain of Gram positive bacteria Streptococcus pyogenes
# [12] = system: Streptococcus pyogenes; assay: In vitro antibacterial activity of PIU2584 strain of Gram positive bacteria Streptococcus pyogenes
# [13] = system: Staphylococcus aureus; assay: In vitro antibacterial activity of A-5278 strain of Gram positive bacteria Staphylococcus aureus
# [14] = system: Staphylococcus aureus; assay: In vitro antibacterial activity of 6538P strain of Gram positive bacteria Staphylococcus aureus
structure (smiles),measurement,setting,value
CC[C@H]1OC(=O)/C(C)=C/[C@H](C)[C@@H](O[C@@H]2O[C@H](C)C[C@H](N(C)C)[C@H]2O)[C@@](C)(OC)C[C@@H](C)C(=O)[C@H](C)[C@H]2N(NC/C=C/c3ccc(N)cc3)C(=O)O[C@]12C,MIC,[1],2 µg/mL
same,MIC,[2],1 µg/mL
same,MIC,[3],> 128 µg/mL
same,MIC,[4],0.03 µg/mL
same,MIC,[5],0.2 µg/mL
same,ED50,[6],9.9 mg/kg/day
same,MIC,[7],0.2 µg/mL
same,ED50,[8],39.9 mg/kg/day
same,MIC,[9],0.03 µg/mL
same,MIC,[10],> 128 µg/mL
same,MIC,[11],0.03 µg/mL
same,MIC,[12],1 µg/mL
same,MIC,[13],> 100 µg/mL
same,MIC,[14],0.2 µg/mL
